The values below come from patent publication US11331333B2, “Treatment of aberrant fibroblast proliferation” (Georg August Universitaet Goettingen Stiftung Oeffentlichen …, priority 2019, dated 2022).

One data set addresses T1, EYA1A (Homo sapiens, UniProt Q99502).
T1 construct: expressed in transfected cells; host or cells: transgenic fibroblasts
T1 sequence (Q99502 1-559 isoform Q99502-2): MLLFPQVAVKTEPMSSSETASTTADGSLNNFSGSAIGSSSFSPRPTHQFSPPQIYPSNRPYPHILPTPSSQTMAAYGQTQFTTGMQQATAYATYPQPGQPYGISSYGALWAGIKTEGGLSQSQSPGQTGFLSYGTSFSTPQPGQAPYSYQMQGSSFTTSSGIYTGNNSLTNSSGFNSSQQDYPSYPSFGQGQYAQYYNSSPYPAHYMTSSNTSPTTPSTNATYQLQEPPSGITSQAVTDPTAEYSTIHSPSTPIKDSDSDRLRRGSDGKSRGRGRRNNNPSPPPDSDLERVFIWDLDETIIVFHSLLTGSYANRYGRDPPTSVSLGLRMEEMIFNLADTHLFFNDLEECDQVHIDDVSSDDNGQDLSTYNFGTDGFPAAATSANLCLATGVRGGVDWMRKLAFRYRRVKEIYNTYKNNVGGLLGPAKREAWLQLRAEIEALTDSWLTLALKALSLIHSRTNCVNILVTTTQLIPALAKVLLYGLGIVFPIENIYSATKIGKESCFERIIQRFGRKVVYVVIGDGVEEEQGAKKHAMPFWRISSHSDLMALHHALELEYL
Briefly: Screen of NCI Mechanistic Set II for EYA1A phosphatase activity with pNPP substrate. The format is biochemical. Conditions: transgenic fibroblasts, compared to control cultures. On the procedure:
FIG. 14 illustrates results of a screen for additional compounds for selective modulation of EYA1A phosphatase activity. The EYA1A phosphatase activity was estimated using p-nitrophenyl phosphate (pNPP) substrate. Briefly, phosphatase activity was determined in transgenic fibroblasts and pNP production was determined in comparison to control cultures. Among 736 compounds contained in the NCI mechanistic set (NCI Mechanistic Set II), 228 inhibitors of EYA1A phosphatase activity were identified.
With regard to modulators of the phosphotyrosine phosphatase activity of EYA1, the inventors screened a small molecule library, namely the NCI “Mechanistic Set II library”, obtained from the open chemical repository of the Developmental Therapeutics Program (DTP) of the National Cancer Institute, illustrated by FIG. 14.
p-Nitrophenyl Phosphate (PNPP) is a non-proteinaceous, non-specific substrate used in the art to assay protein, alkaline and acid phosphatases. The PNPP phosphatase activity is measured using a continuous or single-point spectrophotometric assay based on the ability of phosphatases to catalyze the hydrolysis of PNPP to p-nitrophenol, a chromogenic product with absorbance at 405 nm. Any available protocol can be followed to determine phosphatase activity using pNPP.

In data set [1] the test system is EYA1A^tg mice challenged with UUO. Briefly: Unilateral ureteral obstruction (UUO) kidney fibrosis in EYA1A^tg mice. Format: in vivo, mouse. On the procedure: From 3 days before surgery, C57BL/6 (referred as wildtype) or transgenic mice overexpressing human splice variants EYA1A (rtTACMV;hEYA1A-pTreTight, referred to as EYA1A^tg) and EYA1C (rtTACMV;hEYA1C-pTreTight, referred to as EYA1C^tg) were treated with either vehicle buffer (glucose 5%) or DOX (2 mg/ml, Sigma, St. Louis, USA) within drinking water ad libidum and renewal every 2 days.
Mice were anesthetized with isoflurane inhalation (2-3%), analgesia was performed by subcutaneous injection of 0.1 mg/kg body weight per day Buprenorphine. The ureter was separated from the surrounding tissues and two ligatures were placed about 5 mm apart in upper two-thirds of the left ureter to obtain reliable obstruction. Mice were sacrificed 3, 7 or 10 days after ureteral obstruction for further analyses.
Mice were injected intraperitoneally with Na3VO4 (8 mg/kg i.p. once per day, Sigma, St. Louis, USA) or caffeine (12.5 mg/kg i.p. once per day, Sigma, St. Louis, USA) starting one day prior of surgery, control mice received equivalent volume of PBS or DMSO.
Mice were injected intraperitoneally with SCR7 (20 mg/kg i.p. every alternate day, Sigma, St. Louis, USA) starting one day prior of surgery, control mice received equivalent volume of DMSO.
The inventors obtained 25 nucleotide antisense morpholino sequences (Gene Tools, Philomath, USA). The in vivo morpholinos contain a covalently linked octaguanidine dendrimer as a delivery moiety to facilitate entry into cells in vivo. Mice were injected intraperitoneally with 12.5 mg/kg body weight in vivo morpholinos in saline at a final volume of 100 μL every other day starting two days prior of surgery. A control in vivo
Lentiviral pLenti-Sce1 was produced in 293T virus packaging cells after transfection using morpholino that targets a human β-globin intron mutation was used as standard control. In vivo morpholino sequences are those of SEQ ID NOs: 9 (EYA1A-VMO), 10 (53Bp1-VMO) and 16 (control).
Formalin-fixed, paraffin-embedded kidneys and hearts from mice, and HOPE-fixed, paraffin-embedded human specimens were sectioned at 3 μm, Masson's Trichrome Stain (MTS) was performed at the University Medicine Göttingen. For morphometric analysis of interstitial fibrosis in mice and human biopsies, we assessed the fibrotic area using cellSens (Olympus, Tokyo, Japan) software. Ten visual fields were selected randomly for each MTS stained section at 200× magnification and the relative interstitial fibrotic area was evaluated by using a 10 mm^2 graticule.
Formalin-fixed, paraffin-embedded kidney sections from mice as well as from HOPE-fixed, paraffin-embedded human specimens were deparaffinized in xylene and rehydrated in ethanol containing distilled water. For immunofluorescent staining, EYA1 isoform antisera or primary antibodies against αSMA (A5228, Sigma, St. Louis, USA), Collagen-1 (ab34710, Abcam Biochemicals, Cambridge, UK), γH2A.X^pS139 (ab2893, Abcam Biochemicals, Cambridge, UK), γH2A.X^pS139 (05-636, Merck Millipore, Billerica, UK), γH2A.X^pY142 (ab94602, Abcam Biochemicals, Cambridge, UK), p-Chk1^pS317 (12302P, Cell Signaling, Danvers, USA), p-Chk2^pT68 (2197S, Cell Signaling, Danvers, USA), Rpa1 (2267S, Cell Signaling, Danvers, USA), Rad51 (sc-8349, Santa Cruz Biotechnology, Dallas, USA), 53Bp1 (sc-22760, Santa Cruz Biotechnology, Dallas, USA), Xrcc4 (sc-8285, Santa Cruz Biotechnology, Dallas, USA) and GFP (MA5-15256, Thermo Fisher Scientific, Waltham, USA) were used, secondary antibodies were labeled with Alexa Fluor 488, 594 or 647 (Life Technologies, Carlsbad, USA). Renal basement membranes were stained with antibodies against Collagen-4 (1340-30, SouthernBiotech, Birmingham, USA). Nuclear staining was performed using 4′,6-diamidino-2-phenylindole (DAPI, Vector Laboratories, Burlingame, USA). Quantifications were performed per high power field at 400× magnification, representative confocal pictures using an LSM 780 confocal laser scanning microscope (Zeiss, Oberkochen, Germany) are shown.

Setting [2] is: in vivo morpholino 12.5 mg/kg i.p. every other day, EYA1A^tg mice, UUO, 10 days.
The mark [3] stands for this setting: SCR7 20 mg/kg i.p. every alternate day, EYA1A overexpressing mice, 10 days after ureteral obstruction.

As to `CN(C)c1cccc(/C=C(\C#N)c2ccccc2)c1` [NSC No. 667251, (Z)-3-[3-(dimethylamino)phenyl]-2-phenylprop-2-enenitrile], the EYA1A phosphatase activity result on EYA1A is given as “Strong inducers”.

Turning to `O=C1C=C(Nc2ccccc2C(=O)CC(=O)C(=O)Nc2ccc(Cl)cc2)c2ccccc2C1=O` [NSC No. 641253], the EYA1A phosphatase activity result at EYA1A is reported as “Strong inhibitors”.

Take “53Bp1-VMO: in vivo morpholino, SEQ ID NO: 10, with covalently linked octaguanidine dendrimer, blocking 53Bp1 translation (TCCATCTGCTCCCCTGGCATCC; all phosphorodiamidate morpholino (PMO); octaguanidine dendrimer covalently linked, position not given here, further chemistry not fully specified)”: the “presence of Rpa1 (indicative of HR)” value in data set [1] (in vivo morpholino 12.5 mg/kg i.p. every other day, EYA1A-overexpressing mice, UUO) was “increased presence of Rpa1”. Further, in data set [1] (in vivo morpholino 12.5 mg/kg i.p. every other day, EYA1A^tg mice, UUO), the “53Bp1 within chronically injured kidneys” value is on record as “Depletion of 53Bp1”. Moreover, in data set [1] (setting [2]), the fibroblast accumulation result is reported as “attenuated” and the renal fibrosis entry was “attenuated”.

In the case of `Cc1c2ccncc2cc2c1[nH]c1ccccc12` [NSC 87206, 5-Methyl-6H-pyrido(4,3-b)carbazole], the EYA1A phosphatase activity result on EYA1A was “Strong inhibitors”.

Regarding “Hexapotassium hexatriaconta-p-oxooctadecaoxobis [μ9-[phosphato(3-)-κO:κO:κO:κO′:κO′:κO″:κO″:κO′″:κO′″]]octadeca-molybdate(6-) [NSC No. 622124]”, at EYA1A, the EYA1A phosphatase activity entry was “Strong inhibitors”.

“EYA1A-VMO: in vivo morpholino, SEQ ID NO: 9, with covalently linked octaguanidine dendrimer, specifically inhibiting EYA1A translation (CTGCAACTTGAGGAAACAGCAACAT; all phosphorodiamidate morpholino (PMO); octaguanidine dendrimer covalently linked, position not given here, further chemistry not fully specified)”: the pro-fibrotic effects result in data set [1] (in vivo morpholino 12.5 mg/kg i.p. every other day, EYA1A overexpressing mice, 10 days after ureteral obstruction) is reported as “reversed pro-fibrotic effects”.

As to `N#CC(=C1C=CC(=NO)C=C1)c1ccc(Cl)cc1` [NSC No. 405158, alpha-(p-chlorophenyl)-4-oxo-2,5-cyclohexadiene-δ1,α-acetonitrile oxime], the EYA1A phosphatase activity entry at EYA1A is “Strong inducers”.

Regarding `O=c1ccc(-c2ccccc2)nn1-c1nc2ccccc2s1` [NSC No. 629659, 2-(2-benzothiazolyl)-6-phenyl-3(2H)-pyridazinone], the EYA1A phosphatase activity result at EYA1A was “Strong inducers”.

With `COc1cc2cc3c4cc(OC)c(OC)cc4cc[n+]3c(C)c2cc1OC.O=C([O-])CS(=O)(=O)O` [NSC No. 154890, Dibenzo(a,g)quinolizinium, 2,3,10,11-tetramethoxy-8-methyl-sulfoacetate], on EYA1A, the EYA1A phosphatase activity result is listed as “Strong inhibitors”.

As to `O=c1[nH]c(=S)[nH]c(N=Cc2ccccc2)c1N=Cc1ccccc1` [SCR7], in data set [1] (setting [3]), the fibroblast accumulation result is “significantly reduced” and the fibrosis result was “significantly reduced”.

Regarding `O=C1C(c2cnc3ccccc3n2)=C(O)c2ccccc21` [NSC No. 634224, 3-hydroxy-2-(2-quinoxalinyl)-1-indenone], the EYA1A phosphatase activity result on EYA1A is listed as “Strong inducers”.

For “[Mo12O36(PO4)] disodium salt [NSC No. 622116]”, the EYA1A phosphatase activity result at EYA1A was “Strong inhibitors”.
